Results as given in patent US20080269231A1, “Phenazine Compounds and Use Thereof in Autoimmune and Inflammatory Disease” (JJ Pharma, Inc., priority 2007, published 2008).
Entries after “also recorded” stand apart in the source; their conditions may differ.

Key:
[1] = system: Type II collagen-induced arthritis (CIA); assay: Collagen-induced arthritis (CIA) mouse model, clinical assessment; format: in vivo, DBA/1 LacJ mice; conditions: vs saline control mice; for number of involved (arthritic) paws: Formula III 40 mg/kg i.p. ×3/week or gavaged ×5/week, Enbrel 100 μg i.p. ×3/week, prednisolone 10 mg/kg gavaged ×5/week
Source text: Type II collagen-induced arthritis (CIA) in mice is an accepted experimental model of arthritis with a number of pathological, immunological and genetic features in common with rheumatoid arthritis. This disease is induced by immunization of susceptible strains of mice with type II collagen, the major component of joint cartilage. A progressive, inflammatory arthritis develops in the majority of immunized animals, which is characterized clinically by erythema and edema, with affected paw width increases of typically 100%. A clinical scoring index has been developed to assess disease progression to joint distortion and spondylitis. […] Immunological laboratory findings include high antibody levels to type II collagen and hypergammaglobulinemia.
(§1) This study was designed to evaluate the anti-inflammatory and anti-arthritic activity of compound of Formula III using the CIA model by observing changes in immune parameters due to treatment. The animals were administered oral corticosteroid, Enbrel, an injectable TNF inhibitor, and compound of Formula III using both oral and parenteral delivery. Seventy-five DBA/1 LacJ mice 8-10 weeks of age were obtained from Jackson Labs and quarantined in our facility for 10 days prior to experimentation. All mice weighed >16 grams at the start of the experiment. Mice were pre-bled by retro-orbital puncture, and injected with 100 μg Bovine type II collagen in Freund's complete adjuvant (FCA) intradermally at the base of the tail. Mice were monitored by daily examination for the onset of disease. Mice that developed CIA between 20 days post immunization and 42 days post immunization were assigned to one of five treatment groups on a rotational basis (to normalize onset date), and ten mice were assigned to each group. For administration, compound of Formula III was solubilized in sterile saline. To facilitate drugs delivered by oral administration, carboxymethylcellulose was added to a final concentration of 4% in all gavage solutions. Compounds were administered according to the following schedule: • Group 1. 100 μl sterile saline vehicle injected intraperitoneally (i.p.) ×3/week. • Group 2. 100 μl sterile saline containing compound of Formula III at 40 mg/kg injected i.p. ×3/week. • Group 3. 100 μl sterile saline containing 100 μg Enbrel injected i.p. ×3/week. • Group 4. 100 μl sterile saline containing compound of Formula III at 40 mg/kg gavaged ×5/week. • Group 5. 100 μl sterile saline containing prednisolone 10 mg/kg gavaged ×5/week.
Mice were weighed weekly, and overall health status noted. Arthritic animals were clinically assessed by visual inspection five times per week, and paw swelling quantified by caliper measurements made three times per week, until seven weeks after the initial onset of arthritis. All animals were assessed individually from the time of disease onset, and the appropriate findings were entered into clinical report forms.

[2] = system: anti-type II collagen antibody; format: in vivo, DBA/1 LacJ mice; conditions: after seven weeks of treatment, Prednisolone 10 mg/kg gavaged ×5/week, Formula III 40 mg/kg i.p. ×3/week; for terminal anti-CII antibody levels compared with control mice: p<0.01
Method: as §1
All mice were pre-bled prior to the start of the trial, subsequently at onset of arthritis and at the completion of the trial. Sera were separated and stored at −80° C. ELISA assays were performed to determine anti-type II collagen antibody levels and total immunoglobulin levels.
ELISA plates (Nunc-Immuno plates, Denmark) were coated with 100 μl of coating buffer (0.4M phosphate buffer ph7.6) containing 5 μg of type II collagen, at 4° C. overnight. Plates were washed 3 times with PBS containing 0.05% Tween 20 (Sigma, St. Louis, Mo.) and non specific binding was blocked by PBS containing 5% non fat milk overnight at 4° C. Mouse sera diluted to 1/100 in 5% milk/PBS was added to each well and incubated overnight at 4° C. […] The resulting optical density was measured at 405 nm by using a UV max spectrophotometer (Molecular Devices, CA). […] Antibody binding was expressed as OD405 units-blank.

[3] = system: total serum Ig; assay: Total serum immunoglobulin levels in CIA mice (ELISA); format: in vivo, DBA/1 LacJ mice; conditions: Prednisolone 10 mg/kg gavaged ×5/week; Formula III 40 mg/kg i.p. ×3/week
Method: This study was designed to evaluate the anti-inflammatory and anti-arthritic activity of compound of Formula III using the CIA model by observing changes in immune parameters due to treatment. The animals were administered oral corticosteroid, Enbrel, an injectable TNF inhibitor, and compound of Formula III using both oral and parenteral delivery. Seventy-five DBA/1 LacJ mice 8-10 weeks of age were obtained from Jackson Labs and quarantined in our facility for 10 days prior to experimentation. All mice weighed >16 grams at the start of the experiment. Mice were pre-bled by retro-orbital puncture, and injected with 100 μg Bovine type II collagen in Freund's complete adjuvant (FCA) intradermally at the base of the tail. Mice were monitored by daily examination for the onset of disease. Mice that developed CIA between 20 days post immunization and 42 days post immunization were assigned to one of five treatment groups on a rotational basis (to normalize onset date), and ten mice were assigned to each group. For administration, compound of Formula III was solubilized in sterile saline. […]
Serum Ig levels was assessed using an ELISA assay. […] The plate was read at 405 nm using a Photospectrometer (Molecular Devices), and the data analyzed using the SOFTmax analytical software package. […]

[4] = system: lymph node cells; assay: Lymph node cell mitogen and antigen proliferative responses (MTT) from treated CIA mice; format: in vivo, DBA/1 LacJ mice; conditions: mice treated 40 mg/kg i.p. ×3/week; p<0.05
Method: This study was designed to evaluate the anti-inflammatory and anti-arthritic activity of compound of Formula III using the CIA model by observing changes in immune parameters due to treatment. The animals were administered oral corticosteroid, Enbrel, an injectable TNF inhibitor, and compound of Formula III using both oral and parenteral delivery. Seventy-five DBA/1 LacJ mice 8-10 weeks of age were obtained from Jackson Labs and quarantined in our facility for 10 days prior to experimentation. All mice weighed >16 grams at the start of the experiment. […] Mice were monitored by daily examination for the onset of disease. […]
Spleen and lymph nodes were removed at sacrifice, and mitogen responses to Con A and LPS, and antigen proliferative responses to type II collagen were determined using standard techniques. […] After incubation at 37° C. overnight, the optical density at 590 nm was read using a microplate photospectrometer (Molecular Devices, CA). The mean and OD values, which provide a measure of cell proliferation, were recorded for each cell sample with respect to antigen stimulation. Antigen specific responses were expressed as (OD590 [Stimulated Culture]−OD590 [Spontaneous proliferation culture])/OD590 [Spontaneous proliferation culture].

[5] = system: plasma lipoprotein cholesterol and triglyceride; assay: Antilipidemic activity in hamsters fed hypercholesterolemic diet; format: in vivo, Syrian Golden hamsters; conditions: day 8 of treatment
Source text: Eighty-five male Syrian Golden hamsters (F1B strain, BioBreeders, Fitchburg Mass.) approximately 8-10 weeks of age were acclimated to individual hanging polystyrene cages with bedding for 1 week and then fed a semipurified hypercholesterolemic diet (HCD) containing 25% casein, 20% hydrogenated coconut oil, 2% safflower oil, and 0.15% cholesterol by weight for 2 weeks prior to initiation of the experimental treatments (Table 1). Hamsters were then bled (Week 0) following an overnight fast (16 hr) to determine plasma concentrations of total cholesterol, HDL-C, nonHDL-C, and triglycerides and divided into 17 groups (n=5/group) with similar starting plasma HDL-C levels, and administered either compound of Formula II or vehicle once per day for 14 days.
Plasma total cholesterol, HCL-C, nonHDL-C, and triglycerides were then measured at day 8 (prior to gavage that day) and at day 15 (24 hr after last gavage) following and overnight fast (16 hr). Hamsters were maintained in accordance with the guidelines of the Animal Care Committee at the University of Massachusetts-Lowell Research Foundation and the guidelines prepared by the Committee on the Care and Use of Laboratory Animals of the Institute of Laboratory Animal Resources, National Research Council (DHEW publication no 85-23, revised 1985). Hamsters were housed in an environmentally controlled room with an alternating 12-h light/dark cycle and given ad libitum access to food and water except when food is withheld for the experimental protocols.
Blood was collected via the retro-orbital sinus into heparinized tubes from hamsters fasted for 16 h at days 0, 8, and 15. Plasma was harvested after centrifugation at 1500-×g at room temperature for 10 min and plasma total cholesterol and triglyceride concentrations were measured enzymatically. Plasma LDL cholesterol (combination of very low-density, intermediate, and low-density lipoprotein-cholesterol) was precipitated with phosphotungstate reagent and HDL cholesterol was measured in the supernatant. The concentration of LDL cholesterol was calculated as the difference between plasma TC and HDL cholesterol. The accuracy and precision of the procedures used for the measurements of plasma TC and HDL cholesterol were maintained by participation in the Lipid Standardization Program of the Centers for Disease Control and the National Heart, Blood and Lung Institute (Atlanta, Ga.). All reagents used were supplied by Sigma-Aldrich (St. Louis, Mo.). All assays were performed using a Cobas Mira Plus® (Cobas Mira Plus® is a registered trademark of Roche Diagnostic Systems, Inc.) clinical chemistry autoanalyzer using 10 μl of plasma for each sample (Roche Pharmaceuticals, Basel, Switzerland).

[6] = gavaged ×5/week (Formula III 40 mg/kg; prednisolone 10 mg/kg)
[7] = injected i.p. ×3/week (Formula III 40 mg/kg; Enbrel 100 μg)

| Compound | number of involved (arthritic) paws [1] | arthritis score [1, 6] | arthritis score [1, 7] | terminal anti-CII antibody levels compared with titers at disease onset [2] | terminal anti-CII antibody levels compared with control mice [2] | reduction of total serum Ig levels at the terminal bleed vs control mice [3] | lymph node cell response to LPS [4] | plasma HDL-C change compared to vehicle control ([5]; 0.9 mg/kg once per day) | plasma nonHDL-C change compared to vehicle control ([5]; 0.9 mg/kg once per day) | plasma total cholesterol change compared to vehicle control ([5]; 0.9 mg/kg once per day) | plasma triglycerides change compared to vehicle control ([5]; 0.9 mg/kg once per day) | plasma HDL-C change compared to vehicle control ([5]; 1.8 mg/kg once per day) | plasma nonHDL-C change compared to vehicle control ([5]; 1.8 mg/kg once per day) | plasma total cholesterol change compared to vehicle control ([5]; 1.8 mg/kg once per day) | plasma triglycerides change compared to vehicle control ([5]; 1.8 mg/kg once per day) | plasma HDL-C change compared to vehicle control ([5]; 3.6 mg/kg once per day) | plasma nonHDL-C change compared to vehicle control ([5]; 3.6 mg/kg once per day) | plasma total cholesterol change compared to vehicle control ([5]; 3.6 mg/kg once per day) | plasma triglycerides change compared to vehicle control ([5]; 3.6 mg/kg once per day) | arthritis score ([1]; gavaged ×5/week (Formula III 40 mg/kg; prednisolone 10 mg/kg), listed as prednisolone) |
| --- | --- | --- | --- | --- | --- | --- | --- | --- | --- | --- | --- | --- | --- | --- | --- | --- | --- | --- | --- | --- |
| COc1cccc2c1[n+]([O-])c1cccc(O)c1[n+]2[O-] [compound of Formula III] | did not significantly influence the number of involved paws | did not exert a statistically significant effect | marked effect; also recorded: significant reduction | maintenance of titers equivalent to the levels at onset | significant reduction | not significantly different | significant reduction | −2% | −36% | −27% | −37% | 7% | −24% | −17% | −14% | −4% | −26% | −21% | −20% |  |
| C[C@]12C=CC(=O)C=C1CC[C@@H]1[C@@H]2[C@@H](O)C[C@@]2(C)[C@H]1CC[C@]2(O)C(=O)CO [Prednisolone, prednisolone, reference compound] | significantly lower number of arthritic paws | significant reduction |  | minor decrease | significant reduction | not significantly different |  |  |  |  |  |  |  |  |  |  |  |  |  | significantly reduced the arthritis score |
| Enbrel | significantly lower number of arthritic paws |  | significantly reduced the arthritis score; also recorded: significant reduction |  |  |  |  |  |  |  |  |  |  |  |  |  |  |  |  |  |
